This note sets out measurements from patent US20140107054A1, “Method of treating clostridium difficile-associated diarrhea” (priority 2006, published 2014).

A short description of experiment [1]: Fold increase in MIC relative to tiacumicin B (API mixture profile table). Format: cell-based.
The test system of experiment [2] is Eubacterium lentum (43055). The experiment is described as follows: MIC, CLSI agar dilution, different lots of media (QC organism). Format: cell-based. The note with it: Eggerthella lenta. The text has this:
(§1) Laboratory strains of Clostridium difficile 9689, 700057, 43255, 17857 and Eubacterium lentum 43055 were obtained from American Type Culture Collection (ATCC). […] Broth dilution is not a validated method for MIC testing of Clostridium; however, due to potential inaccuracy of measuring the pH of solid agar after equilibration inside the anaerobic chamber, both methods were used and compared for the assessment of pH effects.
(Agar dilution tests growth on a series of plates holding different concentrations.)

The test system of experiment [3] is C. difficile ATCC 9689. Kind of experiment: MIC, CLSI agar dilution. The class given is cell-based, Clostridium difficile. Conditions: for MIC: Clostridioides difficile, different lots of media. The source says: (§2) Laboratory strains of Clostridium difficile 9689, 700057, 43255, 17857 and Eubacterium lentum 43055 were obtained from American Type Culture Collection (ATCC). […] Broth dilution is not a validated method for MIC testing of Clostridium; however, due to potential inaccuracy of measuring the pH of solid agar after equilibration inside the anaerobic chamber, both methods were used and compared for the assessment of pH effects. […] Even with strong buffering, the pH shifted slightly following equilibration in the anaerobic gas, and thus in some cases media was titered in ambient air to above the desired anaerobic pH. The actual pH was always confirmed following equilibration inside the anaerobic chamber. […] The level of divalent cations in the Brucella broth as acquired from the manufacturer were determined by the Laboratory Specialists, Inc.

For experiment [4], the system named is C. difficile (17857). Kind of experiment: MIC, CLSI agar dilution, different lots of media. Conditions: Clostridioides difficile. Format: cell-based, Clostridium difficile.
From the text: as §1

Experiment [5] relates to C. difficile (43255). The experiment is described as follows: MIC, CLSI agar dilution, different lots of media. The class given is cell-based, Clostridium difficile. Conditions: for MIC: Clostridioides difficile.
From the text: as §1

Experiment [6] has as its system C. difficile strains. The experiment is described as follows: MIC, agar dilution, statements for C. difficile strains together. The class given is cell-based, Clostridium difficile.
From the text: as §2

Experiment [7] concerns C. difficile ATCC 700057. Kind of experiment: MIC, CLSI agar dilution. The class given is cell-based, Clostridium difficile.
From the text: as §2

In experiment [8] the test system is C. difficile ATCC 700057. The experiment is described as follows: MIC, broth microdilution (pH effect). The class given is cell-based, Clostridium difficile. Conditions: in µg/mL. (In broth dilution the organism is exposed to a series of concentrations in liquid medium.)
For experiment [9], the system named is Bacteroides group. Kind of experiment: Quantitative stool cultures of Phase 2A patients, Bacteroides group counts. Format: in vivo, human.
The subject of experiment [10] is C. difficile. The experiment is described as follows: Quantitative stool cultures of Phase 2A patients, C. difficile counts. Format: in vivo, human. Conditions: all patients except one receiving 50 mg; 50, 100 or 200 mg twice daily for 10 days (vancomycin 125 mg qid).
In experiment [11] the test system is C. difficile strains. Kind of experiment: MIC, broth microdilution, statements for both C. difficile strains. Conditions: all three experiments. The class given is cell-based, Clostridium difficile.
The test system of experiment [12] is C. difficile ATCC 9689. The experiment is described as follows: MIC, broth microdilution (pH effect). The class given is cell-based, Clostridium difficile. Conditions: in µg/mL.
[13] abbreviates: anaerobic pH 7, 100 mM NaH2PO4, pH 7.2 (Air).
Where [14] appears, read: anaerobic pH 6.7, 10 mM NaH2PO4 pH 7.0 (air).
Setting [15] is: anaerobic pH 6.8, 100 mM NaH2PO4 pH 7.0 (Air).
Setting [16] is: anaerobic pH 7.2, 10 mM MOPS pH 8.0 (Air).
Setting [17] is: anaerobic pH 7.5, 100 mM MOPS pH 8.0 (Air).
The mark [18] stands for this setting: anaerobic pH 7.6, 10 mM TAPS pH 9.0 (Air).
Setting [19] is: anaerobic pH 8, 100 mM TAPS pH 9.0 (Air).
[20] abbreviates: anaerobic pH 8.1, 100 mM TAPS pH 9.5 (Air).
The mark [21] stands for this setting: strongly buffered series, anaerobic pH 6, pH 6.0 (Air).
Where [22] appears, read: unbuffered media, anaerobic pH 5.9.
Setting [23] is: unbuffered media, anaerobic pH 6.6.
Setting [24] is: unbuffered media, anaerobic pH 7.1.
[25] abbreviates: unbuffered media, anaerobic pH 7.5.
Where [26] appears, read: weakly buffered series, anaerobic pH 6, pH 6.0 (Air).

≈ marks a conversion by molar mass, not a printed value. Where “and” joins values, the source holds several entries; their conditions need not be identical. Equal values may be shown once.

In the case of `CCc1c(Cl)c(O)c(Cl)c(O)c1C(=O)OC1C(C)OC(OC/C2=C\C=C\CC(O)/C(C)=C/C(CC)C(OC3OC(C)(C)C(OC(=O)CC(C)C)C(O)C3O)/C(C)=C/C(C)=C/CC(C(C)O)OC2=O)C(OC)C1O` (centres unmarked) [OP-1437], the “fold increased in MIC relative to tiacumicn B” value in experiment [1] is given as 2x.

As to `CCc1c(Cl)c(O)c(Cl)c(O)c1C(=O)OC1C(C)OC(OC/C2=C/C=C/CC(O)/C(C)=C/C(CC)C(OC3OC(C)(C)C(O)C(O)C3OC(=O)C(C)C)/C(C)=C/C(C)=C/CC(C(C)O)OC2=O)C(OC)C1O` (centres unmarked) [OP-1432, tiacumicin C], the “fold increased in MIC relative to tiacumicn B” value in experiment [1] is recorded as 8-16x.

As to `CCC(=O)OC1C(O)C(O)C(OC2/C(C)=C/C(C)=C/CC(C(C)O)OC(=O)/C(COC3OC(C)C(OC(=O)c4c(O)c(Cl)c(O)c(Cl)c4CC)C(O)C3OC)=C/C=C/CC(O)/C(C)=C/C2CC)OC1(C)C` (centres unmarked) [OP-1417], the “fold increased in MIC relative to tiacumicn B” value in [1] is recorded as 2-4x.

In the case of `CCC1/C=C(\C)C(O)C/C=C/C=C(\COC2OC(C)C(OC(=O)c3c(C)c(Cl)c(O)c(Cl)c3O)C(O)C2OC)C(=O)CC(C(C)O)C/C=C(C)/C=C(\C)C1OC1OC(C)(C)C(OC(=O)C(C)C)C(O)C1O` (centres unmarked) [OP-1405, lipiarmycin A4], the “fold increased in MIC relative to tiacumicn B” value in experiment [1] is recorded as 1-4x.

Consider `CCc1c(Cl)c(O)c(Cl)c(O)c1C(=O)OC1C(C)OC(OC/C2=C/C=C/CC(O)/C(C)=C/C(CC)C(OC3OC(C)(C)C(O)C(OC(=O)C(C)C)C3O)/C(C)=C/C(C)=C/CC(C(C)O)OC2=O)C(OC)C1O` (centres unmarked) [OP-1431, tiacumicin F], for which the “fold increased in MIC relative to tiacumicn B” value in experiment [1] was 8x.

Consider `CCC[C@@H]1C[C@@H](C(=O)N[C@@H]([C@H]2O[C@H](SC)[C@H](O)[C@@H](O)[C@H]2O)[C@H](C)Cl)N(C)C1` [Clindamycin, clindamycin], for which the MIC in experiment [2] (24 h, Day 1) was found to be 0.25 µg/mL (≈ 0.588 µM); in [2] (48 h, Day 2) it was 0.25 µg/mL (≈ 0.588 µM); in [2] (72 h, Day 3) it was 0.125 µg/mL (≈ 0.294 µM); in [3] (ATCC9689, 24 h, Day 1) it was 4 µg/mL (≈ 9.41 µM); in experiment [3] (ATCC9689, 48 h, Day 2), 4 µg/mL (≈ 9.41 µM); in experiment [3] (ATCC9689, 72 h, Day 3) it was 4 µg/mL (≈ 9.41 µM). For the same compound, the MIC in experiment [4] (24 h, Day 1) turned out to be 4 µg/mL (≈ 9.41 µM); in [4] (48 h, Day 2) it was 2 µg/mL (≈ 4.71 µM); in experiment [4] (72 h, Day 3), 4 µg/mL (≈ 9.41 µM); in experiment [5] (24 h, Day 1), 8 µg/mL (≈ 18.8 µM); in [5] (48 h, Day 2), 4 µg/mL (≈ 9.41 µM); in [5] (72 h, Day 3) it was 8 µg/mL (≈ 18.8 µM). For the same compound, the MIC values in experiment [5] (Day 2) is 8 µg/mL (≈ 18.8 µM).

As to `Cc1ncc([N+](=O)[O-])n1CCO` [Metronidazole, metronidazole], the MIC in experiment [2] (24 h, Day 1) is 1 µg/mL (≈ 5.84 µM); in experiment [2] (48 h, Day 2), 0.25 µg/mL (≈ 1.46 µM); in experiment [2] (72 h, Day 3), 1 µg/mL (≈ 5.84 µM). Further, the “MIC values range in our laboratory” value in [6] (control vs. C. difficile strains) is 0.25 to 0.5 µg/mL.

Regarding `CCc1c(Cl)c(O)c(Cl)c(O)c1C(=O)OC1C(C)OC(OC/C2=C\C=C\CC(O)/C(C)=C/C(CC)C(OC3OC(C)(C)C(OC(C)=O)C(O)C3O)/C(C)=C/C(C)=C/CC(C(C)O)OC2=O)C(OC)C1O` (centres unmarked) [OP-1416], the “fold increased in MIC relative to tiacumicn B” value in experiment [1] is listed as 2-4x.

As for `CN[C@H](CC(C)C)C(=O)N[C@H]1C(=O)N[C@@H](CC(N)=O)C(=O)N[C@H]2C(=O)N[C@H]3C(=O)N[C@H](C(=O)N[C@H](C(=O)O)c4cc(O)cc(O)c4-c4cc3ccc4O)[C@H](O)c3ccc(c(Cl)c3)Oc3cc2cc(c3O[C@@H]2O[C@H](CO)[C@@H](O)[C@H](O)[C@H]2O[C@H]2C[C@](C)(N)[C@H](O)[C@H](C)O2)Oc2ccc(cc2Cl)[C@H]1O` [Vancomycin, vancomycin], in experiment [7] (agar dilution, inoculum density 1.48 × 10^8 cfu/ml, 1.48 × 10^5), the “In vitro activity (MIC)” value was 2 µg/mL. The “agar dilution MIC” value in [7] (setting [13]) is 4; in experiment [7] (pH 6.7, unbuffered column) it was 2 (pH 6.7); in experiment [3] (setting [13]), 4; in [3] (pH 6.7, unbuffered column), 1 (pH 6.7). Further, the MIC in [8] (setting [14]) is given as 1; in experiment [8] (setting [15]), 2; in experiment [8] (setting [16]), 2; in experiment [8] (setting [17]), 4; in experiment [8] (setting [18]), 4; in experiment [8] (setting [19]), 8. Moreover, the MIC in [8] (setting [20]) was 8; in experiment [8] (setting [21]), 1; in experiment [8] (setting [22]) it was 0.5; in experiment [8] (setting [23]) it was 1; in experiment [8] (setting [24]), 1 and 2; in experiment [8] (setting [25]), 2 and 4. Also, the MIC in experiment [8] (setting [26]) was 0.5; in experiment [12] (setting [14]) it was 1; in experiment [12] (setting [15]), 1 and 2; in experiment [12] (setting [16]), 2; in experiment [12] (setting [17]), 4; in experiment [12] (setting [18]), 4. The MIC in [12] (setting [19]) was more than 8; in experiment [12] (setting [20]), more than 8; in experiment [12] (setting [21]), 1 and 0.5; in experiment [12] (setting [22]) it was 0.5 and 1; in [12] (setting [23]), 0.5 and 1; in experiment [12] (setting [24]), 2. Besides, the MIC in experiment [12] (setting [25]) amounted to 4; in [12] (setting [26]), 0.5. Moreover, the “Effect on Bacteroides counts during therapy” value in experiment [9] (125 mg qid for 10 days) is “severely impairs Bacteroides counts”. The “Bacteroides group counts/gm feces wet weight, mean ± SD” value in [9] (Day 0, 125 mg qid (n = 7)) is 7.39 ± 2.67 log10 CFU. The “C. difficile quantitative counts at day 10” value in experiment [10] was “similarly effective”. Moreover, the “MIC at highest pH treatment relative to lowest pH treatment” value in experiment [11] was 4-8 fold. The “Effect of inoculum density on MIC” value in experiment [6] (10^5-10^8 cfu/ml (10^2-10^5 CFU/spot), ATCC 9689 and ATCC 700057, highest over lowest inoculum density) is recorded as “fourfold increase in MIC”.

`CCC1CC=C(C)C=C(C)C(OC2OC(C)(C)C(OC(C)=O)C(O)C2O)C(CC)C=C(C)C(O)CC=CC=C(C)C(=O)O1` (centres unmarked) [OP-1434, tiacumicin A]: the “fold increased in MIC relative to tiacumicn B” value in [1] was more than 32x.

Turning to `CCc1c(Cl)c(O)c(Cl)c(O)c1C(=O)OC1C(C)OC(OC/C2=C\C=C\CC(O)/C(C)=C/C(CC)C(OC3OC(C)(C)C(OC(=O)C(C)C)C(O)C3O)/C(C)=C/C(C)=C/CC(C(C)=O)OC2=O)C(OC)C1O` (centres unmarked) [OP-1402], the “fold increased in MIC relative to tiacumicn B” value in [1] is reported as 2-4x.

For the compound `CCc1c(Cl)c(O)c(Cl)c(O)c1C(=O)O[C@H]1[C@H](O)[C@H](OC)[C@H](OC/C2=C\C=C\C[C@H](O)/C(C)=C/[C@H](CC)[C@@H](O[C@@H]3OC(C)(C)[C@@H](OC(=O)C(C)C)[C@H](O)[C@@H]3O)/C(C)=C/C(C)=C/C[C@@H](C(C)O)OC2=O)O[C@@H]1C` (some centres unmarked) [OP-1441, tiacumicin B], the “fold increased in MIC relative to tiacumicn B” value in experiment [1] is reported as 1x.
